≈ marks a conversion by molar mass, not a printed value.
Legend:
[1] = tested on: Mycobacterium tuberculosis; experiment: Antimycobacterial activity against Mycobacterium tuberculosis H37Rv after 4 days by microplate alamar blue assay; assay type: functional; conditions: 96 h
[2] = Cytotoxicity against HEK293 cells after 72 hrs by MTT assay; assay type: cell-based; conditions: human, read-out: LC50
[3] = tested on: Mycobacterium tuberculosis; experiment: Antimycobacterial activity against Mycobacterium tuberculosis H37Rv at 6.25 ug/ml after 4 days by microplate alamar blue assay; assay type: functional; conditions: 96 h
[4] = molecular target: Histamine H1 receptor (Cavia porcellus) (UniProt P31389); experiment: Antagonist activity at guinea pig ileum histamine H1 receptor at 0.3 x 10'4 M; assay type: functional, tissue-based
Sequence of Histamine H1 receptor (Cavia porcellus) (P31389 whole entry): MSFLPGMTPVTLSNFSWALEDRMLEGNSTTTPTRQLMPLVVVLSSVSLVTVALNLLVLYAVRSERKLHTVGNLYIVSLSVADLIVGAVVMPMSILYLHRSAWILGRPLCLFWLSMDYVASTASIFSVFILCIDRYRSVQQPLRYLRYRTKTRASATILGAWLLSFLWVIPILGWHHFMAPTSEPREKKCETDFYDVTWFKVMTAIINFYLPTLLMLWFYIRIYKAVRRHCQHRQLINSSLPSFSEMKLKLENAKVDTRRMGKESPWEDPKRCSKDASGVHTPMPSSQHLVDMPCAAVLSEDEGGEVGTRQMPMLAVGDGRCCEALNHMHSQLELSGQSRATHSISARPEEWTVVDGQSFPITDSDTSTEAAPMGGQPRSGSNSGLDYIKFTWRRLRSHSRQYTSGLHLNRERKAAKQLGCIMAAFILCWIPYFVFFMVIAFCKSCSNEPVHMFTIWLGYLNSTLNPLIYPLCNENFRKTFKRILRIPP

Which MIC [1] does the source give for `CN1CC[C@H](N(Cc2ccccc2)c2ccccc2)CC1(C)C` here?
The MIC was > 6.25 µg/mL.

What about the CC50 at 72 h [2] of the same molecule?
Its CC50 at 72 h is 69.5 µg/mL (≈ 225 µM).

And the inhibition at 6.25 µg/mL [3]?
Its inhibition at 6.25 µg/mL is 31%.

Which results are given for `COc1ccc(N(Cc2ccccc2)[C@H]2CCN(C)C(C)(C)C2)cc1`?
MIC [1]: > 6.25 µg/mL; CC50 at 72 h [2]: 82 µg/mL (≈ 242 µM); inhibition at 6.25 µg/mL [3]: 26%

What does the source list for `CC1(C)C[C@@H](N(Cc2ccccc2)c2ccccc2)CCN1c1ccccc1`?
MIC [1]: 6.25 µg/mL (≈ 16.9 µM); CC50 at 72 h [2]: 108 µg/mL (≈ 291 µM); inhibition at 6.25 µg/mL [3]: 91%; pKb [4]: 5

With `CN1CC[C@H](OC(c2ccccc2)c2ccccc2)CC1(C)C` as the molecule, how does the pKb [4] read?
The pKb was 8.19.

For `c1ccc(CN(c2ccccc2)[C@H]2CCN(c3ccccc3)[C@@H](c3ccccc3)C2)cc1` (relative stereo), which MIC [1] is on record?
Its MIC is > 6.25 µg/mL.

What about the CC50 at 72 h [2] of the same molecule?
The CC50 at 72 h was > 28 µg/mL.

And the inhibition at 6.25 µg/mL [3]?
The inhibition at 6.25 µg/mL was 37%.

For `CC(C)[C@H]1C[C@@H](N(Cc2ccccc2)c2ccccc2)CCN1C` (relative stereo), which MIC [1] is on record?
The MIC was > 6.25 µg/mL.

And the CC50 at 72 h [2]?
Its CC50 at 72 h is 35.9 µg/mL (≈ 111 µM).

And the inhibition at 6.25 µg/mL [3]?
Its inhibition at 6.25 µg/mL is 66%.

For `CC(C)[C@H]1C[C@@H](N(Cc2ccccc2)c2ccccc2)CCN1c1ccccc1` (relative stereo), which MIC [1] is on record?
Its MIC is > 6.25 µg/mL.

What about the CC50 at 72 h [2] of the same molecule?
Its CC50 at 72 h is 127 µg/mL (≈ 330 µM).

What about the inhibition at 6.25 µg/mL [3] of the same molecule?
The inhibition at 6.25 µg/mL was 7%.

Which MIC [1] does the source give for `c1ccc(CN(c2ccccc2)[C@H]2CCN(c3ccccc3)[C@H](c3ccccc3)C2)cc1` (relative stereo) here?
Its MIC is > 6.25 µg/mL.

And the CC50 at 72 h [2]?
Its CC50 at 72 h is > 28 µg/mL.

And the inhibition at 6.25 µg/mL [3]?
Its inhibition at 6.25 µg/mL is 22%.

Which MIC [1] does the source give for `CC(C)[C@@H]1C[C@@H](N(Cc2ccccc2)c2ccccc2)CCN1c1ccccc1` (relative stereo) here?
Its MIC is > 6.25 µg/mL.

And the CC50 at 72 h [2]?
Its CC50 at 72 h is > 28 µg/mL.

What about the inhibition at 6.25 µg/mL [3] of the same molecule?
Its inhibition at 6.25 µg/mL is 52%.

Which results are given for `CN1CCC(N(Cc2ccccc2)c2ccccc2)CC1` [BAMIPINE]?
MIC [1]: > 6.25 µg/mL; CC50 at 72 h [2]: 64.1 µg/mL (≈ 229 µM); inhibition at 6.25 µg/mL [3]: 29%

What does the source list for `NNC(=O)c1ccncc1` [ISONIAZID]?
MIC [1]: 0.025 µg/mL (≈ 0.182 µM); CC50 at 72 h [2]: > 200 µg/mL

Which results are given for `CO[C@H]1/C=C/O[C@@]2(C)Oc3c(C)c(O)c4c(O)c(c(/C=N/N5CCN(C)CC5)c(O)c4c3C2=O)NC(=O)/C(C)=C\C=C\[C@H](C)[C@H](O)[C@@H](C)[C@@H](O)[C@@H](C)[C@H](OC(C)=O)[C@@H]1C` [RIFAMPIN]?
MIC [1]: 0.06 µg/mL (≈ 0.0729 µM); CC50 at 72 h [2]: > 200 µg/mL

Source: ChEMBL document CHEMBL1152307, “Antimycobacterial and H1-antihistaminic activity of 2-substituted piperidine derivatives” (Bioorg Med Chem, 2008)
